Test results from patent US8865756B2, “Inhibitors of HCV NS5A” (Presidio Pharmaceuticals, Inc., priority 2008, dated 2014).

tested on: HCV 1b_Huh-Luc/Neo-ET cell line persistently expressing a bicistronic genotype 1b replicon in Huh 7 cells; assay: HCV replicon assay (luciferase readout); format: cell-based; conditions: Hepatitis C virus, Huh-7, 72 h, read-out: Inhibition of HCV genotype 1b
Summary of the method: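 Huh 7 cells carrying a genotype 1b luciferase/neo replicon treated in triplicate for 72 h, then luciferase activity measured. Signal expressed as % of control; EC50 from four-parameter logistic fit, determined several times.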

SMILES	EC50 [nM]
CC(C)(C)OC(=O)N1CCC[C@H]1c1ncc(C#Cc2ccc(-c3cnc([C@@H]4CCCN4C(=O)OC(C)(C)C)[nH]3)cc2)[nH]1 [Compound 101]	10 to 999
CC(C)(C)OC(=O)N[C@@H](C(=O)N1CCC[C@H]1c1ncc(C#Cc2ccc(-c3cnc([C@@H]4CCCN4C(=O)[C@H](NC(=O)OC(C)(C)C)c4ccccc4)[nH]3)cc2)[nH]1)c1ccccc1 [Compound 99]	< 1
O=C(N[C@@H](C(=O)N1CCC[C@H]1c1ncc(-c2ccc(C#Cc3ccc(-c4cnc([C@@H]5CCCN5C(=O)[C@H](NC(=O)N5CCCCC5)c5ccccc5)[nH]4)cc3)cc2)[nH]1)c1ccccc1)N1CCCCC1 [Compound 250]	< 1
CC(C)[C@@H](NC(=O)N1CCCC1)C(=O)N1CCC[C@H]1c1ncc(-c2ccc(C#Cc3ccc(-c4cnc([C@@H]5CCCN5C(=O)[C@H](NC(=O)N5CCCC5)C(C)C)[nH]4)cc3)cc2)[nH]1 [Compound 293]	> 1000
COC(=O)N[C@H](C(=O)N1CCC[C@H]1c1ncc(-c2ccc(C#Cc3ccc(-c4cnc([C@@H]5CCCN5C(=O)[C@@H](c5ccccc5)N5CCOC5=O)[nH]4)cc3)cc2)[nH]1)C(C)C [Compound 1007]	< 1
COC(=O)NC(C(=O)N1CCC[C@H]1c1ncc(-c2ccc(C#Cc3ccc(-c4cnc([C@@H]5CCCN5C(=O)[C@@H](NC(=O)OC)C(C)C)[nH]4)cc3)cc2)[nH]1)[C@@H](C)O (some centres unmarked) [Compound 971]	< 1
COC(=O)N[C@@H](C(=O)N1CCC[C@H]1c1ncc(-c2ccc(C#Cc3ccc(-c4cnc([C@@H]5CCCN5C(=O)[C@H](NC(=O)OC)[C@H](C)OC)[nH]4)cc3)cc2)[nH]1)[C@H](C)OC [Compound 977]	10 to 999
COC(=O)N[C@@H](C(=O)N1CCC[C@H]1c1ncc(-c2ccc(C#Cc3ccc(-c4cnc([C@@H]5CCCN5C(=O)[C@H](NC(=O)OC)c5ccccc5)[nH]4)cc3)cc2)[nH]1)c1ccccc1 [Compound 156]	< 1
COC(=O)N[C@H](C(=O)N1CCC[C@H]1c1ncc(-c2ccc(C#Cc3ccc(-c4cnc([C@@H]5CCCN5C(=O)[C@@H](NC(=O)N5CCN(CCO)CC5)c5ccccc5)[nH]4)cc3)cc2)[nH]1)C(C)C [Compound 990]	1 to 9.9
CC(C)(C)OC(=O)N1CCCC1c1ncc(-c2ccc(C#Cc3ccc4nc([C@@H]5CCCN5C(=O)OC(C)(C)C)[nH]c4c3)cc2)[nH]1 (some centres unmarked) [Compound 1034]	1 to 9.9
O=C(N[C@@H](C(=O)N1CCC[C@H]1C(=O)Nc1ccc(C#Cc2ccc(-c3cnc([C@@H]4CCCN4C(=O)[C@H](NC(=O)C4CC4)c4ccccc4)[nH]3)cc2)cc1)c1ccccc1)C1CC1 [Compound 166]	< 1
COC(=O)N[C@@H](CCC(=O)O)C(=O)N1CCC[C@H]1c1ncc(-c2ccc(C#Cc3ccc4nc([C@@H]5CCCN5C(=O)[C@H](CCC(=O)O)NC(=O)OC)[nH]c4c3)cc2)[nH]1 [Compound 1047]	10 to 999
COC(=O)N[C@@H](C(=O)N1CCC[C@H]1c1ncc(-c2ccc(C#Cc3ccc(-c4cnc([C@@H]5CCCN5C(=O)[C@@H](c5ccccc5)N5CCCCC5)[nH]4)cc3)cc2)[nH]1)c1ccccc1 [Compound 188]	< 1
COC(=O)N[C@H](C(=O)N[C@@H](C)c1ncc(-c2ccc(C#Cc3ccc4nc([C@H](C)NC(=O)[C@@H](NC(=O)OC)C(C)C)[nH]c4c3)cc2)[nH]1)C(C)C [Compound 868]	< 1
O=S(=O)(c1ccccc1)N1CCC[C@H]1c1ncc(-c2ccc(C#Cc3ccc4nc([C@@H]5CCCN5S(=O)(=O)c5ccccc5)[nH]c4c3)cc2)[nH]1 [Compound 1038]	> 1000
COC(=O)N[C@@H](C(=O)N1CCC[C@H]1c1ncc(-c2ccc(C#Cc3ccc(-c4cnc([C@@H]5CCCN5C(=O)[C@H](OC)c5ccccc5)[nH]4)cc3)cc2)[nH]1)c1ccccc1 [Compound 179]	< 1
CCN(CC)[C@@H](C(=O)N1CCC[C@H]1c1ncc(-c2ccc(-c3ccc(C#Cc4cnc([C@@H]5CCCN5C(=O)[C@H](NC(=O)OC)c5ccccc5)[nH]4)cc3)cc2)[nH]1)c1ccccc1 [Compound 751]	< 1
